Data from ChEMBL document CHEMBL1146094, “Screening for cardiovascular safety: a structure-activity approach for guiding lead selection of melanin concentrating hormone receptor 1 antagonists” (J Med Chem, 2006).

Target: Melanin-concentrating hormone receptor 1 (Homo sapiens, UniProt Q99705)
Sequence (Q99705 whole entry): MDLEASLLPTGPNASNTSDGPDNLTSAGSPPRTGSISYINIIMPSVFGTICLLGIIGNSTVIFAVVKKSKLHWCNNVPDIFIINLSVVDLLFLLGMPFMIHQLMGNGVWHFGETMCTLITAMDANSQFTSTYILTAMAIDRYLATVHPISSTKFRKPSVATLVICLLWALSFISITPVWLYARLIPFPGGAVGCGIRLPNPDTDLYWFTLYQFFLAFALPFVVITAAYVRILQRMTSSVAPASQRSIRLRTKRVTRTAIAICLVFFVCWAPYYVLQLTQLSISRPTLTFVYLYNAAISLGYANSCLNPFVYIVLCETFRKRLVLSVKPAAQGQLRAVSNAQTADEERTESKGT
Assay: Displacement of [125I]MCH from MCHr1 expressed in IMR32 (I3.4.2) cells
Type: cell-based
Details: not given
In the case of O=C(NC1CCN(Cc2ccc3c(c2)OCO3)CC1)c1cc(=O)c2cc(Cl)c(Cl)cc2o1, the IC50 is reported as 0.003 µM.
In the case of COc1ccc(CC(=O)Nc2ccc3cnn(CCN4CCCC4)c3c2)cc1, the IC50 is reported as 3.63 µM.
For COc1ccc2nccc(NC3CCN(Cc4ccc5c(c4)OCO5)CC3)c2c1, the IC50 was 0.01 µM.
Compound O=C(Cc1ccc(Oc2ccccc2)cc1)Nc1ccc2c(cnn2CCN2CCCC2)c1 has an IC50 of 0.078 µM.
For Clc1ccc2[nH]nc(NC3CCN(Cc4ccc5c(c4)OCO5)CC3)c2c1, the IC50 was 0.016 µM.
Work on O=C(Nc1ccc(Oc2ccccc2)cc1)Nc1ccc2nn(CCN3CCCC3)cc2c1 yielded an IC50 of 0.046 µM.
With O=C(Nc1ccc(Oc2ccccc2)cc1)Nc1ccc2nn(CCN3CC[C@H](O)C3)cc2c1 the IC50 was 0.057 µM.
O=C(Nc1ccc(Oc2ccccc2)cc1)Nc1ccc2c(cnn2CCN2CCCCC2)c1 gave an IC50 of 0.005 µM.
Work on O=C(Nc1ccc(Oc2ccccc2)cc1)Nc1ccc2c(cnn2CCN2CCCCCC2)c1 yielded an IC50 of 0.004 µM.
Compound COc1ccc2c(=O)cc(C(=O)NC3CCN(Cc4ccc5c(c4)OCO5)CC3)oc2c1 has an IC50 of 0.006 µM.
For COc1ccc2oc(O)c/c(=N\C3CCN(Cc4ccc5c(c4)OCO5)CC3)c2c1, the IC50 was 0.002 µM.

System: IMR-32
Assay: Inhibition of MCH-mediated calcium release in whole IMR32 cells by FLIPR assay
Type: functional, cell-based
Details: Homo sapiens
O=C(NC1CCN(Cc2ccc3c(c2)OCO3)CC1)c1cc(Cl)ccc1NCc1nccs1 showed an IC50 of 0.053 µM.
Compound O=C(NC1CCN(Cc2ccc3c(c2)OCO3)CC1)c1cc(=O)c2cc(Cl)c(Cl)cc2o1 has an IC50 of 0.083 µM.
CC(C)OCCNc1ncc(Cl)cc1C(=O)NC1CCN(Cc2ccc3c(c2)OCO3)CC1 showed an IC50 of 0.025 µM.
For COc1ccc(CC(=O)Nc2ccc3cnn(CCN4CCCC4)c3c2)cc1, the IC50 was greater than 10 µM.
In the case of COc1ccc2nccc(NC3CCN(Cc4ccc5c(c4)OCO5)CC3)c2c1, the IC50 is reported as 0.074 µM.
Work on O=C(Cc1ccc(Oc2ccccc2)cc1)Nc1ccc2c(cnn2CCN2CCCC2)c1 yielded an IC50 of 0.309 µM.
In the case of Clc1ccc2[nH]nc(NC3CCN(Cc4ccc5c(c4)OCO5)CC3)c2c1, the IC50 is reported as 0.376 µM.
Compound O=C(Nc1ccc(Oc2ccccc2)cc1)Nc1ccc2nn(CCN3CCCC3)cc2c1 has an IC50 of 0.314 µM.
Work on O=C(Nc1ccc(Oc2ccccc2)cc1)Nc1ccc2nn(CCN3CC[C@H](O)C3)cc2c1 yielded an IC50 of 0.214 µM.
O=C(Nc1ccc(Oc2ccccc2)cc1)Nc1ccc2c(cnn2CCN2CCCCC2)c1 gave an IC50 of 0.136 µM.
Work on O=C(Nc1ccc(Oc2ccccc2)cc1)Nc1ccc2c(cnn2CCN2CCCCCC2)c1 yielded an IC50 of 0.103 µM.
COc1ccc2c(=O)cc(C(=O)NC3CCN(Cc4ccc5c(c4)OCO5)CC3)oc2c1 gave an IC50 of 0.073 µM.
In the case of COc1ccc2oc(O)c/c(=N\C3CCN(Cc4ccc5c(c4)OCO5)CC3)c2c1, the IC50 is reported as 0.011 µM.
With O=C(Cc1ccc(OCc2ccccc2)cc1)Nc1ccc2cnn(CCN3CCCC3)c2c1 the IC50 was 0.011 µM.
O=C(Cc1ccc(OCc2ccccc2)cc1)Nc1cccc2c1cnn2CCN1CCCC1 gave an IC50 of 0.071 µM.

System: Rattus norvegicus
Assay: End-of-study drug concentration in inactin-anesthetized Sprague-Dawley rat brain
Type: functional
Details: not given
Work on O=C(NC1CCN(Cc2ccc3c(c2)OCO3)CC1)c1cc(=O)c2cc(Cl)c(Cl)cc2o1 yielded an Activity of 63 µg/g.
For CC(C)OCCNc1ncc(Cl)cc1C(=O)NC1CCN(Cc2ccc3c(c2)OCO3)CC1, the Activity was 88 µg/g.
In the case of COc1ccc(CC(=O)Nc2ccc3cnn(CCN4CCCC4)c3c2)cc1, the Activity is reported as 6 µg/g.
For O=C(Cc1ccc(OCc2ccccc2)cc1)Nc1ccc2c(cnn2CCN2CCCC2)c1, the Activity was 46 µg/g.
In the case of Clc1ccc2[nH]nc(NC3CCN(Cc4ccc5c(c4)OCO5)CC3)c2c1, the Activity is reported as 30 µg/g.
Compound O=C(Nc1ccc(Oc2ccccc2)cc1)Nc1ccc2nn(CCN3CCCC3)cc2c1 has an Activity of 6 µg/g.
With O=C(Nc1ccc(Oc2ccccc2)cc1)Nc1ccc2nn(CCN3CC[C@H](O)C3)cc2c1 the Activity was 3 µg/g.
Work on O=C(Nc1ccc(Oc2ccccc2)cc1)Nc1ccc2c(cnn2CCN2CCCCC2)c1 yielded an Activity of 13 µg/g.
For O=C(Nc1ccc(Oc2ccccc2)cc1)Nc1ccc2c(cnn2CCN2CCCC2)c1, the Activity was 10 µg/g.
Compound COc1ccc2c(=O)cc(C(=O)NC3CCN(Cc4ccc5c(c4)OCO5)CC3)oc2c1 has an Activity of 158 µg/g.
Compound COc1ccc2oc(O)c/c(=N\C3CCN(Cc4ccc5c(c4)OCO5)CC3)c2c1 has an Activity of 71 µg/g.
For CC(C)OCCNc1ncc(Cl)cc1C(=O)NC1CCCN(Cc2ccc3c(c2)OCO3)C1 (configuration not stated), the Activity was 138 µg/g.
O=C(Cc1ccc(OCc2ccccc2)cc1)Nc1ccc2cnn(CCN3CCCC3)c2c1 showed an Activity of 10 µg/g.

System: IMR-32
Assay: Inhibition of MCH-mediated calcium release in whole IMR32 cells at 10 uM by FLIPR assay
Type: functional
Details: Homo sapiens
COc1ccc(CC(=O)Nc2ccc3cnn(CCN4CCCC4)c3c2)cc1 showed an inhibition at 10 µM of 14%.
O=C(Cc1ccc(OCc2ccccc2)cc1)Nc1ccc2c(cnn2CCN2CCCC2)c1 showed an inhibition at 10 µM of 14%.
In the case of CC(C)OCCNc1ncc(Cl)cc1C(=O)NC1CCCN(Cc2ccc3c(c2)OCO3)C1 (configuration not stated), the inhibition at 10 µM is reported as 30%.

System: Mus musculus
Assay: AUC in DIO mice brain at 10 mg/kg, po
Type: ADME, organism-based
Parameters: dose 10 mg/kg, route oral
Details: in vivo
O=C(Nc1ccc(Oc2ccccc2)cc1)Nc1ccc2nn(CCN3CC[C@H](O)C3)cc2c1 showed an AUC of 0 µg·h/g.
COc1ccc2c(=O)cc(C(=O)NC3CCN(Cc4ccc5c(c4)OCO5)CC3)oc2c1 showed an AUC of 4.4 µg·h/g.

System: not listed separately
Assay: AUC in DIO mice plasma at 10 mg/kg, po
Type: ADME, organism-based
Parameters: dose 10 mg/kg, route oral
Details: mouse
In the case of O=C(Nc1ccc(Oc2ccccc2)cc1)Nc1ccc2nn(CCN3CC[C@H](O)C3)cc2c1, the AUC is reported as 1020 ng·h/mL.
Compound COc1ccc2c(=O)cc(C(=O)NC3CCN(Cc4ccc5c(c4)OCO5)CC3)oc2c1 has an AUC of 18700 ng·h/mL.

System: Rattus norvegicus
Assay: End-of-study drug concentration in inactin-anesthetized Sprague-Dawley rat plasma
Type: functional
Details: not given
O=C(NC1CCN(Cc2ccc3c(c2)OCO3)CC1)c1cc(Cl)ccc1NCc1nccs1 gave an Activity of 91 µM.
Work on O=C(NC1CCN(Cc2ccc3c(c2)OCO3)CC1)c1cc(=O)c2cc(Cl)c(Cl)cc2o1 yielded an Activity of 42 µM.
CC(C)OCCNc1ncc(Cl)cc1C(=O)NC1CCN(Cc2ccc3c(c2)OCO3)CC1 showed an Activity of 44 µM.
Work on COc1ccc(CC(=O)Nc2ccc3cnn(CCN4CCCC4)c3c2)cc1 yielded an Activity of 39 µM.
With O=C(Cc1ccc(OCc2ccccc2)cc1)Nc1ccc2c(cnn2CCN2CCCC2)c1 the Activity was 53 µM.
For O=C(Cc1ccc(Oc2ccccc2)cc1)Nc1ccc2c(cnn2CCN2CCCC2)c1, the Activity was 2 µM.
For Clc1ccc2[nH]nc(NC3CCN(Cc4ccc5c(c4)OCO5)CC3)c2c1, the Activity was 22 µM.
O=C(Nc1ccc(Oc2ccccc2)cc1)Nc1ccc2nn(CCN3CCCC3)cc2c1 gave an Activity of 558 µM.
O=C(Nc1ccc(Oc2ccccc2)cc1)Nc1ccc2nn(CCN3CC[C@H](O)C3)cc2c1 gave an Activity of 201 µM.
O=C(Nc1ccc(Oc2ccccc2)cc1)Nc1ccc2c(cnn2CCN2CCCCC2)c1 gave an Activity of 77 µM.
For O=C(Nc1ccc(Oc2ccccc2)cc1)Nc1ccc2c(cnn2CCN2CCCC2)c1, the Activity was 88 µM.
With COc1ccc2c(=O)cc(C(=O)NC3CCN(Cc4ccc5c(c4)OCO5)CC3)oc2c1 the Activity was 66 µM.
Work on COc1ccc2oc(O)c/c(=N\C3CCN(Cc4ccc5c(c4)OCO5)CC3)c2c1 yielded an Activity of 272 µM.
CC(C)OCCNc1ncc(Cl)cc1C(=O)NC1CCCN(Cc2ccc3c(c2)OCO3)C1 (configuration not stated) showed an Activity of 61 µM.
With O=C(Cc1ccc(OCc2ccccc2)cc1)Nc1ccc2cnn(CCN3CCCC3)c2c1 the Activity was 23 µM.
Compound O=C(Cc1ccc(OCc2ccccc2)cc1)Nc1cccc2c1cnn2CCN1CCCC1 has an Activity of 4 µM.
